What was measured:
D(1A) dopamine receptor = D(1A) dopamine receptor (Homo sapiens, UniProt P21728); assay: Antagonist activity at dopamine D1 receptor; assay type: functional
D(2) dopamine receptor = D(2) dopamine receptor (Homo sapiens, UniProt P14416); assay: Antagonist activity at dopamine D2 receptor; assay type: functional
Sequence of D(2) dopamine receptor (P14416 whole entry): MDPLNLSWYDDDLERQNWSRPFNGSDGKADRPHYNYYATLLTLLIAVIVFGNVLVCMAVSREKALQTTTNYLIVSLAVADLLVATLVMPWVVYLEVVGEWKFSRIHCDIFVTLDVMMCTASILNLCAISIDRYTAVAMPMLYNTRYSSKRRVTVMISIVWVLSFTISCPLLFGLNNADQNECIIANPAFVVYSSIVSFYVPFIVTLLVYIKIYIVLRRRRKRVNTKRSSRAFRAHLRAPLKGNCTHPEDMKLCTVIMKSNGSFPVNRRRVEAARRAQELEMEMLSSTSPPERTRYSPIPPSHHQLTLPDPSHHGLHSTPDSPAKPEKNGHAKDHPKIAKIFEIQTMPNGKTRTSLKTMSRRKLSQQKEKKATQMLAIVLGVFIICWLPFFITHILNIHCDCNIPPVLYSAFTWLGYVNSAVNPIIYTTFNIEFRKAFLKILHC

Sequence of D(1A) dopamine receptor (P21728 whole entry): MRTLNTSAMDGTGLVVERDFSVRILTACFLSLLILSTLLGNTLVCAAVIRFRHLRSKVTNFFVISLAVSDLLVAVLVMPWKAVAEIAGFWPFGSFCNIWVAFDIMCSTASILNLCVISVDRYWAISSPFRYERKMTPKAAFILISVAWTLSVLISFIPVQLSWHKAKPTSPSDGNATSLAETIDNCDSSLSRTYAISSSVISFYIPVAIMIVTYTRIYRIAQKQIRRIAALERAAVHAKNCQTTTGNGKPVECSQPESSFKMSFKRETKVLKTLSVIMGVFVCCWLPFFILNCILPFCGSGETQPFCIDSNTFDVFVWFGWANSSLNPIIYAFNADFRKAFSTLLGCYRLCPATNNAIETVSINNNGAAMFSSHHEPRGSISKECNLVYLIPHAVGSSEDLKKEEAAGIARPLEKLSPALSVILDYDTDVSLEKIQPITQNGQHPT

SMILES	EC50 (D(1A) dopamine receptor)	EC50 (D(2) dopamine receptor)
COc1cc2c(cc1O)CN1CCc3cc(OC)c(O)cc3[C@@H]1C2	0.0056 µM	56 µM
COc1cc2c(cc1O)CN1CCc3cc(OC)c(O)cc3[C@H]1C2	> 100 µM	14 µM

Reference: ChEMBL document CHEMBL1949652, “First enantioselective syntheses of the dopamine D1 and D2 receptor modulators, (+)- and (-)-govadine” (Bioorg Med Chem Lett, 2012)
